Measured values from ChEMBL document CHEMBL5226392, “Anti-inflammatory Quinoline Alkaloids from the Roots of Waltheria indica” (J Nat Prod, 2023).
Active and inactive are the calls of the source. No cut-off for these calls is given here.

Columns and labels:
RAW264.7 [1] = assay: Inhibition of NO production in LPS-stimulated mouse RAW264.7 cells at 50 uM preincubated for 15 mins followed by LPS stimulation and measured after 20 hrs by Griess reagent based assay relative to control; format: functional; conditions: RAW264.7, 20.25 h, time 1215 min
[2] = Cytotoxicity against LPS-stimulated mouse RAW264.7 cells assessed as cell survival at 50 uM preincubated for 15 mins followed by LPS stimulation and measured after 20 hrs by CCK-8 assay relative to control; format: toxicity, cell-based; conditions: LPS-stimulated RAW264.7 cells, time 1215 min, read-out: Activity
[3] = Antiinflammatory activity in human 293/NFkB-Luc cells assessed as inhibition of TNF-alpha induced NFkaapaB activity at 50 uM preincubated for 15 mins followed by TNF-alpha induction and measured after 6 hrs by luminescence based assay relative to control; format: functional; conditions: 6.25 h, time 375 min
[4] = Cytotoxicity against TNF-alpha induced human 293/NFkB-Luc cells assessed as increase in cell survival at 50 uM preincubated for 15 mins followed by TNF-alpha induction and measured after 6 hrs by MTT assay relative to control; format: toxicity, cell-based; conditions: TNF-alpha induced 293/NFkB-Luc cells, time 375 min, read-out: Activity
RAW264.7 [5] = assay: Inhibition of NO production in LPS-stimulated mouse RAW264.7 cells preincubated for 15 mins followed by LPS stimulation and measured after 20 hrs by Griess reagent based assay; format: functional, cell-based
[6] = Antiinflammatory activity in human 293/NFkB-Luc cells assessed as inhibition of TNF-alpha induced NFkaapaB activity preincubated for 15 mins followed by TNF-alpha induction and measured after 6 hrs by luminescence based assay; format: functional, cell-based
RAW264.7 [7] = assay: Antiinflammatory activity in mouse RAW264.7 cells assessed as inhibition of LPS-induced iNOS protein expression at 30 uM preincubated for 15 mins followed by LPS stimulation and measured after 24 hrs by Western blot analysis; format: functional, cell-based; conditions: time 1215.0 min
[8] = Cytotoxicity against LPS-stimulated mouse RAW264.7 cells assessed as cell growth inhibition preincubated for 15 mins followed by LPS stimulation and measured after 20 hrs by CCK-8 assay; format: toxicity, cell-based; conditions: LPS-stimulated RAW264.7 cells
RAW264.7 [9] = assay: Antiinflammatory activity in mouse RAW264.7 cells assessed as inhibition of LPS-induced […] at 10 to 30 uM preincubated for 15 mins followed by LPS stimulation and measured after 4 hrs by qPCR analysis; format: functional, cell-based; conditions: dose 10-30 µM, time 255.0 min

| IC50 (RAW264.7 [5]) [µM] | IC50 [6] [µM] | SMILES | inhibition at 50 µM (RAW264.7 [1]) [%] | viability at 20 h, 50 µM [2] [%] | inhibition at 50 µM [3] [%] | viability at 6 h, 50 µM [4] [%] | Activity (RAW264.7 [7]) | IC50 at 20 h [8] [µM] | Activity (RAW264.7 [9]) |
| --- | --- | --- | --- | --- | --- | --- | --- | --- | --- |
| 12.8 | 10.1 | COc1c(C)[nH]c2c(c1=O)[C@H](CCCCCc1ccccc1)CCC2 | 99.1 | 61 | 81.6 | 91.8 | – | – | – |
| 16.1 | – | CCCCCCCC[C@H]1CCC(=O)c2[nH]c(C)c(OC)c(=O)c21 | 97.4 | 63.5 | < 50 | 85.8 | Active | – | – |
| 18.8 | 10.3 | COc1c(C)n(OC)c2c(c1=O)[C@@H](CCCCCc1ccc(O)cc1)CCC2 | 94.5 | < 50 | 85.4 | 85.3 | – | 25.9 | – |
| 40.7 | – | COc1c(C)[nH]c2c(c1=O)[C@@H](CCCCCc1ccccc1)CCC2=O | 59.7 | 67.5 | < 50 | 88.4 | – | – | – |
| 11.7 | – | COc1c(C)[nH]c2c(c1=O)[C@@H](CCCCCc1ccccc1)CCC2 | 97.2 | 84.3 | < 50 | 77.2 | Active | – | Active |
| 31 | 11.9 | COc1c(CO)[nH]c2c(c1=O)[C@@H](CCCCCc1ccccc1)CCC2=O | 79.1 | 50.8 | 71.1 | 100 | – | – | – |
| 20.8 | – | CCCCCCCC[C@H]1CCCc2[nH]c(C)c(OC)c(=O)c21 | 99.9 | 67.6 | < 50 | 90.8 | – | – | – |
| 25.4 | – | CCCCCCCC[C@H]1CCC(=O)c2[nH]c(CO)c(OC)c(=O)c21 | 89.9 | 50.9 | < 50 | 93.1 | – | – | – |
| 11 | 12.1 | COc1c(C)n(OC)c2c(c1=O)[C@@H](CCCCCc1ccccc1)CCC2 | 99.7 | < 50 | 88.6 | 89 | – | 32.2 | – |
| 11.4 | 10.2 | COc1c(C)[nH]c2cccc(CCCCCc3ccccc3)c2c1=O | 97.9 | < 50 | 77.5 | 76.7 | – | 33.3 | – |
| – | 8.9 | COc1c(C)n(OC)c2c(c1=O)[C@@H](CCCCC(=O)c1ccccc1)CCC2 | < 50 | 73.2 | 97.9 | 82.7 | – | – | – |

The remaining lines, values behind:

| SMILES | IC50 (RAW264.7 [5]) [µM] | IC50 [6] [µM] | inhibition at 50 µM (RAW264.7 [1]) [%] | viability at 20 h, 50 µM [2] [%] | inhibition at 50 µM [3] [%] | viability at 6 h, 50 µM [4] [%] | Activity (RAW264.7 [7]) | IC50 at 20 h [8] [µM] | Activity (RAW264.7 [9]) |
| --- | --- | --- | --- | --- | --- | --- | --- | --- | --- |
| COc1ccc(OC)c([C@@]2(O)c3ccc4[nH]c(C)c(OC)c(=O)c4c3[C@@H]3CC[C@H]2O3)c1 | – | – | < 50 | 100 | < 50 | 74.5 | – | – | – |
| COc1c(C)[nH]c2c(c1=O)[C@@H](CCCCCc1ccccc1)CC[C@H]2OC | – | – | < 50 | 57.2 | < 50 | 69.9 | – | – | – |
| COc1ccccc1[C@@H]1c2ccc3[nH]c(C)c(OC)c(=O)c3c2[C@@H]2CC[C@H]1O2 | 38.8 | 7.2 | 56.3 | 100 | 84.5 | 79.6 | – | – | – |
| CCCCCCC[C@H](O)c1ccc(OC)c2[nH]c(C)c(OC)c(=O)c12 | 25.8 | – | 91.7 | 64.7 | < 50 | 75.6 | – | – | – |
| CCCCCCCCc1ccc(O)c2[nH]c(C)c(OC)c(=O)c12 | – | – | < 50 | 70.2 | < 50 | 83.6 | – | – | – |
| CC[C@@H](C)[C@@H]1NC(=O)[C@@H](NC(=O)[C@H](Cc2ccccc2)N(C)C)[C@@H](c2ccccc2)Oc2ccc(cc2)/C=C\NC1=O | – | – | < 50 | 94.8 | < 50 | 86.4 | – | – | – |
| CNC(=N)NCCC[C@H](N)C(=O)O | 22.7 | – | – | – | – | – | – | – | – |
| COc1c(C)[nH]c2ccc3c(c2c1=O)[C@@H]1CCC[C@@]3(c2ccccc2)O1 | 35.7 | 7.1 | 58.7 | 100 | 78 | 89 | – | – | – |
| COc1c(C)[nH]c2c(O)ccc(CCCCCc3ccccc3)c2c1=O | – | – | < 50 | 59.3 | < 50 | 83.5 | – | – | – |
| COc1c(C)[nH]c2c(c1=O)[C@@H](CCCCC(=O)c1ccccc1)CCC2=O | – | – | < 50 | 74.5 | < 50 | 82.2 | – | – | – |
| Cc1ccc(S(=O)(=O)/C=C/C#N)cc1 | – | 9.7 | – | – | – | – | – | – | – |
| CCCCCCCC(=O)c1ccc(OC)c2[nH]c(C)c(OC)c(=O)c12 | – | – | < 50 | 69.9 | < 50 | 86.7 | – | – | – |
| CC[C@H](C)[C@@H]1NC(=O)[C@H](NC(=O)/C=C/c2ccccc2)[C@H](c2ccccc2)Oc2ccc(cc2)/C=C\NC1=O | 43 | – | 58.5 | 100 | < 50 | 100 | – | – | – |
| COc1c(C)[nH]c2c(c1=O)[C@@H](CCCCCc1ccc(O)cc1)CCC2=O | – | – | < 50 | 89.3 | < 50 | 80.5 | – | – | – |
| O=C1N/C=C\c2ccc(cc2)O[C@@H](c2ccccc2)[C@H](NC(=O)[C@@H]2CCCN2C(=O)/C=C/c2ccccc2)C(=O)N[C@H]1Cc1ccccc1 | 32 | – | 63.7 | 100 | < 50 | 76.6 | – | – | – |
| COc1c(C)[nH]c2c(OC)ccc(CCCCCCC(C)=O)c2c1=O | 35.6 | – | 63.8 | 86.5 | < 50 | 75.8 | – | – | – |
| COc1c(C)[nH]c2c(OC)ccc(C(=O)CCCCc3ccccc3)c2c1=O | – | – | < 50 | 82.8 | < 50 | 76.8 | – | – | – |
| CCCCCCC[C@@H](O)c1ccc(OC)c2[nH]c(C)c(OC)c(=O)c12 | 25.8 | – | 86.5 | 84.9 | < 50 | 72.6 | – | – | – |
| COc1ccccc1[C@]1(O)c2ccc3[nH]c(C)c(OC)c(=O)c3c2[C@@H]2CC[C@H]1O2 | – | – | < 50 | 100 | < 50 | 86.7 | – | – | – |
| CCCCCCCC[C@H]1CC[C@@H](OC)c2[nH]c(C)c(OC)c(=O)c21 | 42.9 | – | 60.3 | 51.4 | < 50 | 90.3 | – | – | – |
